Source: ChEMBL document CHEMBL1201862, “PubChem BioAssay data set” (2004)
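Cultured in 96-well plates, cells were exposed to test compound for 48 hours across five concentrations. GI50 is the concentration that inhibits growth by half.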 Activity calls are given as the source filed them. Rule as the data show it: active = GI50 up to about 1.1 µM and inactive = higher.

Columns and labels:
Experiment in all cases: NCI anticancer screen, dose series, 48 h
786-0 = system: 786-0
M19-MEL = system: M19-MEL
DMS-273 = system: DMS-273
DMS-114 = system: DMS-114
LXFL 529 = system: LXFL 529
KM-20L2 = system: KM-20L2
DLD-1 = system: DLD-1
XF498 = system: XF498
RXF 631 = system: RXF 631

Measured: GI50

CCOC(=O)c1c(N=C(S)Nc2ccccc2)sc2c1CCN(C)C2
inactive: 786-0 > 100 µM

C[C@H](O)C(=O)SC[C@H](NC(=O)CC[C@@H](N)C(=O)O)C(=O)NCC(=O)O
inactive: M19-MEL > 100 µM | DMS-273 > 100 µM | DMS-114 > 100 µM | LXFL 529 > 100 µM | KM-20L2 > 100 µM | DLD-1 > 100 µM

N#CCc1c(F)c(F)c(F)c(F)c1F
inactive: 786-0 > 100 µM

CC[C@]12C=CCN3CC[C@@]4(c5cc(Br)c(OC)c([N+](=O)[O-])c5N(C)[C@H]4[C@@](O)(C(=O)OC)[C@@H]1OC(C)=O)[C@@H]32
inactive: 786-0 94.6 µM

C/C=C/C1=CC(=O)C(O)C1O (centres undefined)
inactive: M19-MEL 26.7 µM | DMS-273 25.9 µM | XF498 18.5 µM | DMS-114 22 µM | KM-20L2 28.2 µM | DLD-1 30.4 µM

CC1CC/C(=C\c2ccc(Cl)cc2)C(=O)/C1=C\c1ccc(Cl)cc1 (centres undefined)
inactive: 786-0 34.1 µM

Cc1cccc(C(C)C)c1NC(=O)/C(Cc1c([N+](=O)[O-])cccc1[N+](=O)[O-])=N/NC(=O)CC#N
inactive: M19-MEL > 100 µM | DMS-273 > 100 µM | 786-0 > 100 µM | DMS-114 > 100 µM | LXFL 529 > 100 µM | KM-20L2 > 100 µM | RXF 631 > 100 µM | DLD-1 > 100 µM

COc1ccc(/N=C(\C)c2ccncc2)cc1
inactive: 786-0 > 100 µM

O=C1C[C@H](Sc2ccccc2)C2(OCCO2)[C@@H](Sc2ccccc2)C1
inactive: 786-0 2.82 µM

CCCCCCCSc1nc2c(C(=O)OCC)ncn2c2ccccc12
inactive: M19-MEL > 100 µM | DMS-273 > 100 µM | XF498 > 100 µM | DMS-114 > 100 µM | LXFL 529 > 100 µM | KM-20L2 > 100 µM

O=C(Nc1c(C(=O)NC2CCCCC2)[nH]c(=O)[nH]c1=O)c1ccc(Cl)cc1
inactive: M19-MEL > 100 µM | XF498 > 100 µM | DMS-114 > 100 µM | LXFL 529 > 100 µM | DLD-1 > 100 µM

N#C/C(=C1/Sc2c(nc[nH]c2=O)N1c1ccccc1)c1nc2ccccc2[nH]1
inactive: M19-MEL > 100 µM | DMS-273 > 100 µM | XF498 > 100 µM | DMS-114 > 100 µM | LXFL 529 > 100 µM | KM-20L2 > 100 µM | DLD-1 > 100 µM

Cc1csc(/N=C(/NCCN2CCOCC2)Nc2nc(C)cs2)n1
inactive: M19-MEL > 100 µM | DMS-273 > 100 µM | XF498 > 100 µM | DMS-114 > 100 µM | KM-20L2 > 100 µM | DLD-1 > 100 µM

c1ccc2c(c1)CCCC/C2=N/OCC1CO1 (centres undefined)
inactive: DMS-273 53.1 µM | XF498 29.4 µM | DMS-114 34.8 µM | LXFL 529 36.3 µM | KM-20L2 > 100 µM | DLD-1 > 100 µM

O=C(O)CN(CC(=O)O)C(C(=O)O)c1ccccc1 (centres undefined)
inactive: 786-0 > 100 µM

COC(=O)C(C/C=C(\C)c1ccc(Cl)cc1)C(C)=O (centres undefined)
inactive: M19-MEL 32.7 µM | DMS-273 32.7 µM | XF498 > 65.8 µM | DMS-114 19.9 µM | KM-20L2 35.9 µM | DLD-1 57.1 µM

O=C1c2ccccc2C(=O)N1/N=C1/SC(=N\c2ccccc2)/C(=N/c2ccccc2)N1c1ccccc1
inactive: 786-0 11.4 µM

CCOC(=O)c1cc(C2CCN(Cc3ccccc3)C2=S)c(C(=O)C=[N+]=[N-])[nH]1 (centres undefined)
inactive: 786-0 28.1 µM

Fc1ccc2c(c1)SC1=Nc3sc4cc(F)ccc4[n+]3CN12
inactive: 786-0 18.3 µM

CCO[C@]12C[C@H](OC)[C@@]3(O)CC(C1[C@H]3O)C13C4C2[C@H](OC)C1[C@](COC)(CN4CC)[C@H](O)C[C@@H]3OC (some centres undefined)
inactive: M19-MEL > 100 µM | DMS-273 > 100 µM | DMS-114 > 100 µM | LXFL 529 > 100 µM | KM-20L2 > 100 µM | DLD-1 > 100 µM

C=CC(C)C1(CCCOCc2ccccc2)C(=S)N2CCC3(CC24CCCC14)OCCO3 (centres undefined)
inactive: M19-MEL 25.6 µM | DMS-273 10.3 µM | XF498 3.06 µM | DMS-114 4.97 µM | LXFL 529 6.1 µM | KM-20L2 62.2 µM | DLD-1 54.6 µM
